Source: US8536187B2 (Gilead Sciences, Inc., priority 2008, dated 2013)
pEC50: −log10 of the molar value.

How the values were obtained:
[1] = system: HCV replicon in human hepatoma Huh-7 cell line; assay: Anti-HCV replicon assay, EC50 (luciferase luminescence); format: cell-based; conditions: Hepatitis C virus, Huh-7, 72 h
Procedure, shortened: (§1)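 Huh-7 cells carrying HCV replicon (6000/well) incubated with serially diluted compound, 0.5% DMSO final, 3 days at 37° C, 5% CO2. EC50 from luciferase luminescence after 30 min lysis/substrate at room temperature; CC50 from CellTiter-Glo luminescence after 10 min at room temperature.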

[2] = CC50 assay (CellTiter-Glo) in Huh-7 HCV replicon cells; format: cell-based; conditions: human, Table 2, 3 days incubation
Procedure, shortened: as §1

For `CCOc1ccc(-c2ccc3nc(N[C@H](C)c4ccc(-n5cncn5)cc4)nc(NCC(F)(F)F)c3n2)cc1S(N)(=O)=O` [Example 265, 5-(2-((R)-1-(4-(1H-1,2,4-triazol-1-yl)phenyl)ethylamino)-4-(2,2,2-trifluoroethylamino)pyrido [3,2-d]pyrimidin-6-yl)-2-ethoxybenzenesulfonamide], the pEC50 [1] was greater than 7.00 and the CC50 at 3 days [2] was 1000 to 10000 nM.
